Test results from the NIST ThermoML archive (doi:10.1021/je501162f).

Columns and labels:
[1] = for viscosity / mass density: 101.33 kPa; for viscosity / mass density / surface tension liquid-gas: Liquid; for mass density: Vibrating tube method; for surface tension liquid-gas: Pendant drop shape; for Glass transition temperature: DTA
[2] = molar heat capacity at constant pressure; settings: 101.33 kPa, Liquid, Small sample (50 mg) DSC

CCCCCCCC[n+]1ccn(C)c1.N[C@@H](CO)C(=O)[O-] [1-methyl-3-octyl-1H-imidazol-3-ium L-serinate]
Settings	mass density, [1] [kg/m3]	molar heat capacity at constant pressure, [2] [J/K/mol]	surface tension liquid-gas, [1] [mN/m]	viscosity, [1] [mPa·s]
293.15 K	1075.6	599.21	34.29	2853
303.15 K	1069.3	607.97	32.8	1178.7
313.15 K	1062.7	614.69	32.2	536.2
323.15 K	1056.1	624.21	31.6	271.2
333.15 K	1049.7	634.19	31	149.6
343.15 K	1043.3	644.72	30.01	88.9
353.15 K	1036.9	655.67	29.23	56.2
363.15 K	1030.5	–	–	37.5
373.15 K	1024.2	–	–	26.2

Settings	Glass transition temperature [°C]
[1]	-54

CCCCCCCC[n+]1ccn(C)c1.C[C@H](N)C(=O)[O-] [1-methyl-3-octylimidazolium L-alaninate]
Settings	mass density, [1] [kg/m3]	molar heat capacity at constant pressure, [2] [J/K/mol]	surface tension liquid-gas, [1] [mN/m]	viscosity, [1] [mPa·s]
293.15 K	985.3	592.06	28.24	705.1
303.15 K	982.1	600.95	27.9	347.3
313.15 K	978.6	609.08	27.23	184.6
323.15 K	975.8	620.49	26.61	106.9
333.15 K	972.9	632.82	26.11	65.7
343.15 K	969.3	645.14	25.55	42.9
353.15 K	966.3	657.43	24.99	29.1
363.15 K	962.6	–	–	20.7
373.15 K	959.7	–	–	15.2

Settings	Glass transition temperature [°C]
[1]	-66

CCCCCCCC[n+]1ccn(C)c1.NC(=O)C[C@H](N)C(=O)[O-] [1-methyl-3-octylimidazolium L-asparaginate]
Settings	mass density, [1] [kg/m3]	molar heat capacity at constant pressure, [2] [J/K/mol]	surface tension liquid-gas, [1] [mN/m]	viscosity, [1] [mPa·s]
293.15 K	–	654	34.32	–
303.15 K	1061.7	662.93	33.7	3519.9
313.15 K	1057.2	670.78	32.96	1436.8
323.15 K	1052.2	682.99	31.99	659.1
333.15 K	1048.6	694.16	31.73	333.3
343.15 K	1044.1	705.81	30.88	182.6
353.15 K	1039	717.01	30.19	107.1
363.15 K	1034.4	–	–	66.6
373.15 K	1030.1	–	–	43.5

Settings	Glass transition temperature [°C]
[1]	-44

CCCCCCCCn1cc[n+](C)c1.O=C([O-])[C@@H]1CCCN1 [1-methyl-3-octyl-1H-imidazol-3-ium L-prolinate]
Settings	mass density, [1] [kg/m3]	molar heat capacity at constant pressure, [2] [J/K/mol]	surface tension liquid-gas, [1] [mN/m]	viscosity, [1] [mPa·s]
293.15 K	1064.5	561.68	29.28	1969.8
303.15 K	1058.2	569.53	28.88	839.9
313.15 K	1051.8	578.89	28.46	401.2
323.15 K	1045.5	590.88	28.17	211
333.15 K	1039.1	603.42	27.76	120.3
343.15 K	1032.8	615.85	27.62	73.2
353.15 K	1026.4	627.51	27.14	47.2
363.15 K	1020.1	–	–	31.9
373.15 K	1013.9	–	–	22.4

Settings	Glass transition temperature [°C]
[1]	-62

CCCCCCCCn1cc[n+](C)c1.NCC(=O)[O-] [1-methyl-3-octylimidazolium glycinate]
Settings	mass density, [1] [kg/m3]	molar heat capacity at constant pressure, [2] [J/K/mol]	surface tension liquid-gas, [1] [mN/m]	viscosity, [1] [mPa·s]
293.15 K	1041.7	504.06	35.37	486.4
303.15 K	1035.3	511.67	33.98	248.2
313.15 K	1029.1	518.04	32.81	137.9
323.15 K	1023	526.8	31.35	82.4
333.15 K	1016.8	536.66	30.07	52.3
343.15 K	1010.6	546.99	28.75	34.9
353.15 K	1004.4	555.85	27.42	24.4
363.15 K	998.6	–	–	17.7
373.15 K	992.8	–	–	13.3

Settings	Glass transition temperature [°C]
[1]	-69
